# Results from patent US4772599A, “Benzodiazepine derivatives and their preparation and use” (A/S Ferrosan, priority 1986, dated 1988).
# Tested on: benzodiazepine receptors
# Assay: In vivo displacement of 3H-flunitrazepam from brain benzodiazepine receptors
# Conditions: mice (female, NMR), test substance i.p. 15 min before 3H-FNM i.v.; dose inhibiting 50% of specific 3H-FNM binding in forebrain
# From the text: The pharmaceutical properties of the compounds of the invention can be illustrated by determining their capability for displacing radioactivity labelled flunitrazepam from benzodiazepine receptors.
# The displacement activity of the compounds of the invention may be found by determining the ED50 value. The ED50 value represents the dose (mg/kg) of a test substance which causes the specific binding of flunitrazepam to benzodiazepine receptors in a living brain to be reduced to 50% of the control value.
# Such an in vivo test is carried out as follow:
# Principle. Twenty minutes after a dose of ^3 H-flunitrazepam (^3 H-FNM) (200 μCi/kg, i.v.) the amount of specific ^3 H-FNM binding to brain benzodiazepine receptors has reached its maximal value.
# Test procedure. Suspensions of test substances (2 mg/ml) are prepared in 5% Duphasol-X (TM Duphar, caster oil-ethylene oxide derivative for emulsifying and solubilizing oil and other water-insoluble substances) by sonification for 10 min using a Branson B15 microtip ultrasonifier (setting 7). Groups of three mice (female, NMR, 18-22 grams) are injected with the test substance at 100 mg/kg intraperitoneally. Fifteen minutes after test substance administration the mice are challenged with 4 μCi intravenously of ^3 H-FNM (70-90 Ci/mole) in 200 μl physiological saline. Twenty minutes after ^3 H-FNM administration mice are sacrificed by decapitation, the forebrains rapidly excised (within 30 sec) and homogenized in 12 ml of icecold 25 mM KH2 PO4, pH 7.1, using an Ultra-Turrax™ homogenizer fitted with an N 10 shaft. Two aliquots of 1 ml are immediately filtered through Whatman GF/C glassfibre filters and washed with 2×5 ml of the above mentioned buffer. The amounts of radioactivity on the filters are determined by conventional scintillation counting. One group of untreated mice serves as control. One to three mice are injected with 25 μg/kg clonazepam i.p. 30 minutes before ^3 H-FNM to determine the amount of non-specific ^3 H-FNM binding, which should be between 8-15% of total binding. When doses of 100 mg/kg inhibit more than 50% of specific ^3 H-flunitrazepam binding, test substances are administered in doses, which are factors of 3.16 times lower than 100 mg/kg. The ED50 for a test substance is defined as that dose which inhibits 50% of specific ^3 H-FNM binding. Specific binding is the amount of binding in controls minus the amount of binding in clonazepam-treated mice.
# Results. The ED50 value is determined from dose response curves. If only one dose of test substance is administered the ED50 value is calculated as follows, provided that the inhibition of specific binding is within the range of 25-75%: [formula] where Co is specific binding in controls of Cx is specific binding in mice treated with test substance.
row,SMILES,In vivo displacement activity: ED50
1,Cc1nc(-c2ncn3c2CN(C)C(=O)c2c(-c4nc(-c5ccccc5)no4)cccc2-3)no1,1.7 mg/kg
2,CCOC(=O)c1cccc2c1C(=O)N(C)Cc1c(-c3nc(C4CC4)no3)ncn1-2,1.4 mg/kg
3,CCc1noc(-c2cccc3c2C(=O)N(C)Cc2c(-c4nc(CC)no4)ncn2-3)n1,1.3 mg/kg
4,COC(=O)c1cccc2c1C(=O)N(C)Cc1c(-c3nc(C4CC4)no3)ncn1-2,0.4 mg/kg
5,CCOC(=O)c1cccc2c1C(=O)N(C)Cc1c(-c3noc(C)n3)ncn1-2,1.5 mg/kg
